Five compounds from ChEMBL document CHEMBL1144998, “C(8) substituted 1-azabicyclo[3.3.1]non-3-enes and C(8) substituted 1-azabicyclo[3.3.1]nonan-4-ones: novel muscarinic receptor antagonists” (J Med Chem, 2003) can be followed below.

For experiment [1], the target named is T1, Muscarinic acetylcholine receptor M2 (Homo sapiens, UniProt P08172).
T1 sequence (P08172 whole entry): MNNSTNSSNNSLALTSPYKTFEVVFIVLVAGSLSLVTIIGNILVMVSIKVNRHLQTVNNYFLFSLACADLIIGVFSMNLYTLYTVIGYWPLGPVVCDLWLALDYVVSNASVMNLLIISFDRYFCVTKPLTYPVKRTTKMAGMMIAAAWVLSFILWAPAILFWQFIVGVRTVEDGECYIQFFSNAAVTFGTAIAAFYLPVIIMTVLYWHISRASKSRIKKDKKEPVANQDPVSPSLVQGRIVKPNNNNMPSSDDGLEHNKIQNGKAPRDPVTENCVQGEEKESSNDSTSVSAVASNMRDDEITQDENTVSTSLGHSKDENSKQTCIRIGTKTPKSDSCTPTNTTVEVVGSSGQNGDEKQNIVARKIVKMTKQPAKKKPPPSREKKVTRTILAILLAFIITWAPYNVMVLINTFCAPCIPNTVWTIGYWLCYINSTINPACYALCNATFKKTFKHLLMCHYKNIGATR
Description: Binding affinity of compound was determined towards human Muscarinic acetylcholine receptor M2 using [3H]QNB radioligand.

For experiment [2], the target named is Muscarinic acetylcholine receptor M3 (Homo sapiens, UniProt P20309). Description: Binding affinity of compound was determined towards human Muscarinic acetylcholine receptor M3 using [3H]QNB radioligand.
Experiment [3] concerns the target T2, Muscarinic acetylcholine receptor M4 (Homo sapiens, UniProt P08173).
T2 sequence (P08173 whole entry): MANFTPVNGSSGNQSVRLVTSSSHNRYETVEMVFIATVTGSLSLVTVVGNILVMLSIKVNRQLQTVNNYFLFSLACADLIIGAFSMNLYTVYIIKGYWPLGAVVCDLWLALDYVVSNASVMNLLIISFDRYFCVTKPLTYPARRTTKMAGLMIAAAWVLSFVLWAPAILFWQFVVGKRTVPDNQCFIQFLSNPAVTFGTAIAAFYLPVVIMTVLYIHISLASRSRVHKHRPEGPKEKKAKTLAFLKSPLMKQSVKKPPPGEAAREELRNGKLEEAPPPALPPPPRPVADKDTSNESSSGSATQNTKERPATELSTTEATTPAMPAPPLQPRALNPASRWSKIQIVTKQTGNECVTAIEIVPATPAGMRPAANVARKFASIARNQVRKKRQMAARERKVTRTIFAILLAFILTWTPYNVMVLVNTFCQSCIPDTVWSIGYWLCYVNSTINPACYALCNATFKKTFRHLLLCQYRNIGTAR
Description: Binding affinity of compound was determined towards human Muscarinic acetylcholine receptor M4 using [3H]QNB radioligand.

Experiment [4] concerns the target T3, Muscarinic acetylcholine receptor M1 (Homo sapiens, UniProt P11229).
T3 sequence (P11229 whole entry): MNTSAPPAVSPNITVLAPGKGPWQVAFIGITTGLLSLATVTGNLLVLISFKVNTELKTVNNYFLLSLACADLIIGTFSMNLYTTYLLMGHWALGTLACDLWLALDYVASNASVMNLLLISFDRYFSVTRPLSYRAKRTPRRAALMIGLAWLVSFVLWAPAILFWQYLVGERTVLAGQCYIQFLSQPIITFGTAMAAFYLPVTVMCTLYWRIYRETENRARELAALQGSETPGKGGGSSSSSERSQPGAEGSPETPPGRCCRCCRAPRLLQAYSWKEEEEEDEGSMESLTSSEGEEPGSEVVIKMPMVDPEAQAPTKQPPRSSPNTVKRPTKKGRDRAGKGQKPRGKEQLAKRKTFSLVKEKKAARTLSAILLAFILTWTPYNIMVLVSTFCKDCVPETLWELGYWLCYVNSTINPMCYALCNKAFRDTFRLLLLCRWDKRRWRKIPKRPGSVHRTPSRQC
Kind of experiment: Binding affinity of compound was determined towards human Muscarinic acetylcholine receptor M1 using [3H]QNB radioligand.

The target of experiment [5] is T4, Muscarinic acetylcholine receptor M5 (Homo sapiens, UniProt P08912).
T4 sequence (P08912 whole entry): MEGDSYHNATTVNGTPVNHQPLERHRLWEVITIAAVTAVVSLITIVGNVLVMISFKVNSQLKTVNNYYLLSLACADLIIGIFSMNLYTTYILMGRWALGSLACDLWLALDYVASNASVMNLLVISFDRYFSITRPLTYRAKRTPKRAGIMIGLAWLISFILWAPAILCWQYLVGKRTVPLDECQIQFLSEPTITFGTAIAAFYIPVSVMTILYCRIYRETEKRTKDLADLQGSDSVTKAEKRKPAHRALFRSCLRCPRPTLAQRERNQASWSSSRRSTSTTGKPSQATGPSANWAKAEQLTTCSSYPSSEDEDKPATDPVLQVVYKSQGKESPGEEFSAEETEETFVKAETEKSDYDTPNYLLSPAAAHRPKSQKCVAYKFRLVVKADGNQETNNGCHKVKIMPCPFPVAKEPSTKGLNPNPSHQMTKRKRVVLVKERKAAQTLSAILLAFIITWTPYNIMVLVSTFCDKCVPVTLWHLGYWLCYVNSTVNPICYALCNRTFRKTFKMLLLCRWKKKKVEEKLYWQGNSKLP
Kind of experiment: Binding affinity of compound was determined towards human Muscarinic acetylcholine receptor M5 using [3H]QNB radioligand.

Sequence of Muscarinic acetylcholine receptor M3 (P20309 whole entry): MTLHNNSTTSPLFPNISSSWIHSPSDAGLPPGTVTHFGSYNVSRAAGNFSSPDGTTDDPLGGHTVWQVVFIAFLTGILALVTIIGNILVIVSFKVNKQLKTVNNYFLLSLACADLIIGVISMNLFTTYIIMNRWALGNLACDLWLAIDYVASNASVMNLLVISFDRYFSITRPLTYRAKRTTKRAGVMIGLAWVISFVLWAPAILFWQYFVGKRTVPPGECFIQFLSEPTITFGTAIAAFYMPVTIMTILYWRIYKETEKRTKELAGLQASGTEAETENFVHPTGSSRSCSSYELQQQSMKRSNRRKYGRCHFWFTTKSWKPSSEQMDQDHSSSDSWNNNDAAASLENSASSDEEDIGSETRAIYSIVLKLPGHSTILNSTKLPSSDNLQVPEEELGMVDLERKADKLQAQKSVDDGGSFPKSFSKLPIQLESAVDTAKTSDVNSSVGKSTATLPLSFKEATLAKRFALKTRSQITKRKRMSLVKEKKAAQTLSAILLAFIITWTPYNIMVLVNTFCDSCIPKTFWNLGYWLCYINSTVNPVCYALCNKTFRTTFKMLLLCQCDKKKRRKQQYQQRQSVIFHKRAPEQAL

Consider `CCO/C(O)=C1\CN2CCCC(C2)C1=O` (configuration not stated), for which the inhibitory constant (Ki) (commonly a dissociation constant, usually derived from enzyme kinetics or from competition with a known ligand) was 1.6 µM in experiment [1]; 1.5 µM in experiment [2]; 2600 nM in experiment [3]; 1200 nM in experiment [4]; 980 nM in experiment [5].

On to `CCO/C(O)=C1\CN2CC(CCC2COCc2ccccc2)C1=O` (stereo in doubt; 3), for which the Ki in experiment [1] is 0.08 µM; in experiment [2], 0.84 µM; in experiment [3], 270 nM; in experiment [4] it was 250 nM; in experiment [5] it was 560 nM.

Take `CCO/C(O)=C1\CN2CC(CCC2COCc2ccccc2)C1=O` (stereo in doubt; 4): the Ki is 4.1 µM in experiment [1]; 7.5 µM in experiment [2]; 11000 nM in experiment [3]; 6600 nM in experiment [4]; 3000 nM in experiment [5].

Consider `CCO/C(O)=C1\CN2CC(CCC2CN(C)C)C1=O` (stereo in doubt; 6), for which the Ki in experiment [1] was more than 100 µM; in experiment [2] it was 37 µM.

On to `CCO/C(O)=C1\CN2CC(CCC2CN(C)C)C1=O` (stereo in doubt; 5), for which the inhibition constant (Ki) is 86 µM in experiment [1]; more than 100 µM in experiment [2]; more than 100000 nM in experiment [3]; more than 100000 nM in experiment [4]; more than 100000 nM in experiment [5].
